The term pIC50 denotes the negative decadic logarithm of the IC50, by convention in mol/L.

pIC50: −log10 of the molar value.

The target in one experiment is T1, Full-length KDM5B enzyme (Homo sapiens, UniProt Q9UGL1).
T1 construct: recombinant protein from baculovirus-transfected Sf21 cells: full-length KDM5B; MW=176.825 kDa; host or cells: baculovirus-transfected Sf21 insect cells
T1 sequence (Q9UGL1 whole entry): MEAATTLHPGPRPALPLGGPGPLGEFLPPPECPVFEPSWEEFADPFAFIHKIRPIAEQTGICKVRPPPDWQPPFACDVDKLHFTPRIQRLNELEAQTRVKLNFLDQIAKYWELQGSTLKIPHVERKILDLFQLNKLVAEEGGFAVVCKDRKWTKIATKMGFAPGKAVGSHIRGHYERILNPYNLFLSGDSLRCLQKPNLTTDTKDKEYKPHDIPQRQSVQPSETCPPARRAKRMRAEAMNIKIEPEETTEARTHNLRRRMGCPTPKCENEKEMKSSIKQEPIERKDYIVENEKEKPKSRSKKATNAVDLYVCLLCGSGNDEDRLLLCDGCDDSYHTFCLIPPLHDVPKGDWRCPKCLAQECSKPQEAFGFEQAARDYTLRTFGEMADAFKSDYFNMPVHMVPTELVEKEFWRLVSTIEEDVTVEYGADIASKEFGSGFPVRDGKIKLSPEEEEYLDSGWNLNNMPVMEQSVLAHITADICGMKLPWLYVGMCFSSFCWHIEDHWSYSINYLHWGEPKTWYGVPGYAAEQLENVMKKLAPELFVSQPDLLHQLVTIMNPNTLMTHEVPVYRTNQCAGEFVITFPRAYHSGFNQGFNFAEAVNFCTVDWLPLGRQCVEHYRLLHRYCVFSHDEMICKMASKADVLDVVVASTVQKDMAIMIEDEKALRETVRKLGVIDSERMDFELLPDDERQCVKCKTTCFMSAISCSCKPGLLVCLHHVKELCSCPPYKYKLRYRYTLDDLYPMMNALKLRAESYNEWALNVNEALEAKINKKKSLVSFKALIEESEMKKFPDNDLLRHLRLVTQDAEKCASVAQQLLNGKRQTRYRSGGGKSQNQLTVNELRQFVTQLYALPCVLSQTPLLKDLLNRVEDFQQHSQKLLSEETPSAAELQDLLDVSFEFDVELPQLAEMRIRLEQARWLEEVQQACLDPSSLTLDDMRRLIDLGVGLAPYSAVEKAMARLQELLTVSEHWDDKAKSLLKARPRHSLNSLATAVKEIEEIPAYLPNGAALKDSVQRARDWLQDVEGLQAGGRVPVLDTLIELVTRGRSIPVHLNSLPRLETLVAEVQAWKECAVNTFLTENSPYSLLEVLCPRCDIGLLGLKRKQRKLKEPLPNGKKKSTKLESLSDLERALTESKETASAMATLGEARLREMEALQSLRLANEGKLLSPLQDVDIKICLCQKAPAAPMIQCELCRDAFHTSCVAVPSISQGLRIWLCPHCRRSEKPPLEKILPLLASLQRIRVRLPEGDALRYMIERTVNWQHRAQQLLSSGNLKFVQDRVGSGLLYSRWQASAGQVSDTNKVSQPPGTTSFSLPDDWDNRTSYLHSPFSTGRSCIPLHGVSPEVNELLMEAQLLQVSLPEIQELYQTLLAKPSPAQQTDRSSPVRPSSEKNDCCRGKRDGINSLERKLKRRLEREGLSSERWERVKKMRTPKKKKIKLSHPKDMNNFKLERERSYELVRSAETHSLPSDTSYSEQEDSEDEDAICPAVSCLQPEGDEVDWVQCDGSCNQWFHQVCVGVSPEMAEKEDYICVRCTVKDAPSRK
The experiment in a line: KDM5B TR-FRET Enzyme Activity Assay (LANCE). It is filed as biochemical.
Settings: not given
The method, then:
KDM5B TR-FRET Enzyme Activity Assay
KDM5B enzymatic activity was determined with the LANCE (Lanthanide Chelate Excite) TR-FRET (Time-resolved fluorescence resonance energy transfer) assay. […] Following a 30 minutes compound and enzyme incubation in a humidified chamber, each reaction was initiated by the addition of 1 μL 1× assay buffer containing […] biotinylated H3K4Me3 peptide, and 500 nM α-ketoglutarate. The final reaction in each well of 5 μL consists of 5 nM KDM5B, 500 nM biotinylated-peptide, and 500 nM α-ketoglutarate. De-methylation reactions were allowed to proceed for 60 minutes. Reactions were immediately quenched by the addition of 5 μL of 2× Lance Detection Buffer (PerkinElmer) with 0.5 mM EDTA and 2 nM of Eu-anti-H3K4Mel-2 antibody, and 30 nM of Streptavidin-conjugated Dylight 650 detection reagents. After 60 minutes incubation with detection reagents, reaction plates were read on a PerkinElmer EnVision plate reader using standard TR-FRET protocol. Briefly, excitation of donor molecules (Eu-chelate-anti-H3K4Me1-2-antibody) with a laser light source at 337 nm produces energy that can be transferred to Dylight-650 acceptor molecules if this donor:acceptor pair is within close proximity.
Fluorescence intensity at both 665 nm (acceptor) and 615 nm (donor) are measured and a TR-FRET ratio calculated for each well (acceptor intensity/donor intensity). IC50 values were determined by 4 parameter robust fit of TR-FRET ratio values vs. (Log 10) compound concentrations.
Regarding `Cc1nc2[nH]c(C)c(C3CCCC3)c(=O)n2n1` [Example 7-45, 6-cyclopentyl-2,5-dimethyl[1,2,4]triazolo[1,5-a]pyrimidin-7(4H)-one], the pIC50 was < 4.00.

For the compound `Cc1nc2[nH]c(C3CC3)cc(=O)n2n1` [Example 7-46, 5-cyclopropyl-2-methyl[1,2,4]triazolo[1,5-a]pyrimidin-7(4H)-one], the pIC50 is < 4.00.

`CCCCc1cc(=O)n2nc(C)nc2[nH]1` [Example 7-49, 5-butyl-2-methyl[1,2,4]triazolo[1,5-a]pyrimidin-7(4H)-one]: the pIC50 is < 4.00.

For the compound `Cc1nc2[nH]c(-c3ccc(Cl)cc3)cc(=O)n2n1` [Example 7-51, 5-(4-chlorophenyl)-2-methyl[1,2,4]triazolo[1,5-a]pyrimidin-7(4H)-one], the pIC50 was 4.85.

For `Cc1nc2[nH]c(-c3ccccc3Cl)cc(=O)n2n1` [Example 7-52, 5-(2-chlorophenyl)-2-methyl[1,2,4]triazolo[1,5-a]pyrimidin-7(4H)-one], the pIC50 was < 4.00.

For the compound `Cc1nc2[nH]c(CC3CCCC3)cc(=O)n2n1` [Example 7-56, 5-(cyclopentylmethyl)-2-methyl[1,2,4]triazolo[1,5-a]pyrimidin-7(4H)-one], the pIC50 was < 4.00.

As for `Cc1nc2[nH]c(CC(C)(C)C)cc(=O)n2n1` [Example 7-57, 5-(2,2-dimethylpropyl)-2-methyl[1,2,4]triazolo[1,5-a]pyrimidin-7(4H)-one], the pIC50 is < 4.00.

As for `Cc1nc2[nH]c(C3CCOCC3)cc(=O)n2n1` [Example 7-58, 2-methyl-5-(tetrahydro-2H-pyran-4-yl)[1,2,4]triazolo[1,5-a]pyrimidin-7(4H)-one], the pIC50 is < 4.00.

On to `Cc1nc2[nH]c(C3CCCCC3)cc(=O)n2n1` [Example 7-59, 5-cyclohexyl-2-methyl[1,2,4]triazolo[1,5-a]pyrimidin-7(4H)-one], for which the pIC50 is < 4.00.

`Cc1nc2[nH]c(C3CCCC3)cc(=O)n2n1` [Example 7-61, 5-cyclopentyl-2-methyl[1,2,4]triazolo[1,5-a]pyrimidin-7(4H)-one]: the pIC50 was < 4.00.

In the case of `Cc1nc2[nH]c(CC3CC3)cc(=O)n2n1` [Example 7-63, 5-(cyclopropylmethyl)-2-methyl[1,2,4]triazolo[1,5-a]pyrimidin-7(4H)-one], the pIC50 is < 4.00.

Turning to `Cc1nc2[nH]c(-c3ccccc3)cc(=O)n2n1` [Example 7-69, 2-methyl-5-phenyl-[1,2,4]triazolo[1,5-a]pyrimidin-7(4H)-one], the pIC50 is 5.12.

Still in this experiment, the particulars now being: 5 nM full-length KDM5B, biotinylated H3K4Me3 peptide, 500 nM α-ketoglutarate; ten point titration 100000 nM to 5.08 nM; read-out: IC50.
As for `Cc1nc2[nH]c(-c3ccco3)cc(=O)n2n1` [Example 7-44, 5-furan-2-yl-2-methyl[1,2,4]triazolo[1,5-a]pyrimidin-7(4H)-one], the pIC50 is 4.47.

Take `CCc1[nH]c2nc(C)nn2c(=O)c1C` [Example 7-47, 5-ethyl-2,6-dimethyl[1,2,4]triazolo[1,5-a]pyrimidin-7(4H)-one]: the pIC50 was 4.54.

For `Cc1nc2[nH]c(C(F)(F)F)c(C)c(=O)n2n1` [Example 7-48, 2,6-dimethyl-5-(trifluoromethyl)[1,2,4]triazolo[1,5-a]pyrimidin-7(4H)-one], the pIC50 was 4.53.

On to `Cc1nc2[nH]c(C)c(F)c(=O)n2n1` [Example 7-50, 6-fluoro-2,5-dimethyl[1,2,4]triazolo[1,5-a]pyrimidin-7(4H)-one], for which the pIC50 was 4.15.

`Cc1nc2[nH]c(-c3ccccc3F)cc(=O)n2n1` [Example 7-53, 5-(2-fluorophenyl)-2-methyl[1,2,4]triazolo[1,5-a]pyrimidin-7(4H)-one]: the pIC50 was 4.43.

With `Cc1nc2[nH]c(-c3cccc(Cl)c3)cc(=O)n2n1` [Example 7-54, 5-(3-chlorophenyl)-2-methyl[1,2,4]triazolo[1,5-a]pyrimidin-7(4H)-one], the negative logarithm of the IC50 (pIC50) was 4.91.

In the case of `Cc1nc2[nH]c(Cc3ccccc3)cc(=O)n2n1` [Example 7-55, 5-benzyl-2-methyl[1,2,4]triazolo[1,5-a]pyrimidin-7(4H)-one], the pIC50 is 4.01.

As for `CCc1c(C(F)(F)F)[nH]c2nc(C)nn2c1=O` [Example 7-60, 6-ethyl-2-methyl-5-(trifluoromethyl)[1,2,4]triazolo[1,5-a]pyrimidin-7(4H)-one], the negative logarithm of the IC50 (pIC50) is 5.19.

For `Cc1nc2[nH]c(C3CCC3)cc(=O)n2n1` [Example 7-62, 5-cyclobutyl-2-methyl[1,2,4]triazolo[1,5-a]pyrimidin-7(4H)-one], the pIC50 was 4.20.

Regarding `Cc1nc2[nH]c(C3CC3)c(C)c(=O)n2n1` [Example 7-64, 5-cyclopropyl-2,6-dimethyl[1,2,4]triazolo[1,5-a]pyrimidin-7(4H)-one], the pIC50 is 4.35.

As for `Cc1nc2[nH]c(C(F)(F)F)c(F)c(=O)n2n1` [Example 7-65, 6-fluoro-2-methyl-5-(trifluoromethyl)[1,2,4]triazolo[1,5-a]pyrimidin-7(4H)-one], the pIC50 is 4.55.

For the compound `Cc1nc2[nH]c(C3CCCC3)c(C)c(=O)n2n1` [Example 7-66, 5-cyclopentyl-2,6-dimethyl[1,2,4]triazolo[1,5-a]pyrimidin-7(4H)-one], the negative-log IC50 (pIC50) was 4.56.

As to `Cc1nc2[nH]c(C3CCCCC3)c(C)c(=O)n2n1` [Example 7-67, 5-cyclohexyl-2,6-dimethyl[1,2,4]triazolo[1,5-a]pyrimidin-7(4H)-one], the pIC50 was 4.27.

In the case of `Cc1nc2[nH]c(C3CCC3)c(C)c(=O)n2n1` [Example 7-68, 5-cyclobutyl-2,6-dimethyl[1,2,4]triazolo[1,5-a]pyrimidin-7(4H)-one], the pIC50 is 4.64.

The record behind these values is US20200048259A1, “KDM5 INHIBITORS” (priority 2016, published 2020).
